In paper PMC10906926 (Science Advances, 2024):

Test system: DIO mice
Assay: Weight loss recovery of mPD5 relative to liraglutide
Type: in vivo
Settings: 0.09 mg kg−1 s.c. once daily for 9 days

Substance: liraglutide
- Weight regain upon treatment cessation: promptly initiated weight regain upon treatment cessation
